Read-outs that look alike come from different tables or passages of the source.
How the values were obtained:
[1] = Pharmacokinetic study in rats after intraperitoneal injection (UHPLC-MS/MS); format: in vivo, Sprague Dawley rats; details: for Cmax / AUC(0-inf) / AUC(0-t) / Tmax / half-life: ip
Description: (§1) The validated UPLC-MS/MS method was successfully applied to the pharmacokinetic study and tissue distribution in rats after an intraperitoneal injection of 84-B10 (0.36 mg/kg). […] Two hours later, the plasma concentration tended to flatten out, with a concentration of approximately 10 ng/mL. AUC0–t and AUC0–∞ were 269 and 278 h*ng/mL, respectively. After an intraperitoneal administration, 84-B10 could be detected in different tissues, indicating a wide distribution (Figure 4). The compound rapidly distributed and reached maximum concentration at 0.033 h for most tissues. […] In most tissues, 84-B10 was eliminated at 8 h.
84-B10 was determined and quantified by ExionLC system coupled with SCIEX 4500 triple quadrupole mass spectrometers (SCIEX, Framingham, MA, USA). A phenyl HPLC column (50 × 2.1 mm, 3 μm) (YMC, Kyoto, Japan) was used for separation. Methanol was selected as the organic phase as it could better reflect the π-π selectivity between benzene and the chromatographic column. An amount of 5 mM ammonium formate was added into water to adjust the dissociation of 84-B10 and to improve the chromatographic peak. The flow rate was 0.3 mL/min with gradient elution (Table 8).
(§2) After one week of adaptive feeding, pharmacokinetic experiments were conducted. 84-B10 (0.36 mg/kg) solution was injected and blood was collected into tubes containing heparin sodium at 0.033, 0.083, 0.25, 0.5, 1, 2, 4, 6 and 8 h after administration. Blood was centrifuged at 8000 rpm for 5 min to obtain the plasma. The tissue was accurately weighed and ground with pure water (w:v, 1:5) to obtain homogenate. An amount of 50 µL of biological matrix was precipitated with 200 μL of methanol containing IS (Ginkgolide J, 2 μg/mL). After vortexing for 5 min, the samples were centrifuged at 12,000 rpm for 5 min and the supernatant was taken for injection.

[2] = Tissue distribution in rats after intraperitoneal injection; format: in vivo, Sprague Dawley rats; details: intraperitoneal 0.36 mg/kg
Description: as §1, §2

[3] = Stability of 84-B10 in rat plasma under different storage conditions; format: in vitro ADME; details: n = 6
Description: The method was validated according to the Bioanalytical Method Validation Guidance for Industry issued by Food and Drug Administration of USA in 2018. In short, blank plasma from six different rats was collected and spiked with or without LLOQ working solutions to evaluate the sensitivity. The linear least square method was used to fit the standard curve, and the weighting coefficient was 1/x^2. The precision and accuracy were evaluated by analyzing three different concentrations of quality control samples in three consecutive days. Blank plasma was first precipitated with methanol and then spiked with QC working solutions into supernatant. The peak area was compared with QC samples to estimate the extraction recovery. Alternatively, blank plasma was replaced with ultrapure water and mixed with QC working solutions. The matrix effect was then evaluated. For stability evaluation, different concentrations of QC samples were stored at room temperature for 2 h, frozen–thawed for three cycles, or stored in an auto-sampler (extracted samples, 4 °C) for 24 h and then analyzed.

[4] = parameters: method as in PMID 36629048; details: mice, intraperitoneal 5 mg/kg, plasma, non-compartmental WinNonlin 7.0 on concentrations from previous publication; cited from earlier work
[5] = target: Lon protease 1 (LONP1); parameters: method as in PMID 36629048; details: cited from earlier work
[6] = tested on: LonP1; parameters: method as in PMID 36629048; details: cited from earlier work
[7] = tested on: cisplatin-induced acute kidney injury; parameters: method as in PMID 36403736, PMID 36629048; details: mice, 5 mg/kg; cited from earlier work
[8] = tested on: renal fibrosis induced by unilateral ureteral obstruction (UUO) or unilateral ischemia reperfusion injury (UIRI); parameters: method as in PMID 36403736, PMID 36629048; details: mice, dose of 0.5–7.5 mg/kg; cited from earlier work
[9] = Sprague Dawley, rat, plasma, single intraperitoneal injection 0.36 mg/kg, female, mean ± SD
[10] = Sprague Dawley, rat, plasma, single intraperitoneal injection 0.36 mg/kg, male, mean ± SD
[11] = both sexes, Sprague Dawley, rat, plasma, single intraperitoneal injection 0.36 mg/kg, total (male and female), mean ± SD
[12] = extracted rat plasma samples, autosampler 4 °C for 24 h, spiked 3 ng/mL
[13] = extracted rat plasma samples, autosampler 4 °C for 24 h, spiked 300 ng/mL
[14] = extracted rat plasma samples, autosampler 4 °C for 24 h, spiked 750 ng/mL
[15] = rat plasma, room temperature for 2 h, spiked 3 ng/mL
[16] = rat plasma, room temperature for 2 h, spiked 300 ng/mL
[17] = rat plasma, room temperature for 2 h, spiked 750 ng/mL
[18] = rat plasma, three freeze–thaw cycles, spiked 3 ng/mL
[19] = rat plasma, three freeze–thaw cycles, spiked 300 ng/mL
[20] = rat plasma, three freeze–thaw cycles, spiked 750 ng/mL

- Cmax ([1]; Sprague Dawley, rat, intraperitoneal 0.36 mg/kg, plasma, non-compartmental WinNonlin 7.0, read-out: Cmax, observed): 257 ng/mL
- concentration at 2 h ([1]; Sprague Dawley, rat, plasma, intraperitoneal 0.36 mg/kg, 2 h after injection, curve flattens out, read-out: plasma concentration two hours later): ~10 ng/mL
- AUC(0-inf) [1, 9]: 241 ± 29 ng·h/mL
- AUC(0-t) [1, 9]: 233 ± 27 ng·h/mL
- Tmax [1, 9]: 8.4 ± 6 min
- half-life [1, 9]: 25.8 ± 2.4 min
- Cmax ([1]; Sprague Dawley, rat, plasma, single intraperitoneal injection 0.36 mg/kg, female, mean ± SD, read-out: Cmax): 231 ± 2.08 ng/mL
- AUC(0-inf) [1, 10]: 315 ± 31 ng·h/mL
- AUC(0-t) [1, 10]: 305 ± 30.2 ng·h/mL
- Tmax [1, 10]: 11.4 ± 6 min
- half-life [1, 10]: 27 ± 1.2 min
- Cmax ([1]; Sprague Dawley, rat, plasma, single intraperitoneal injection 0.36 mg/kg, male, mean ± SD, read-out: Cmax): 284 ± 48.2 ng/mL
- AUC(0-inf) [1, 11]: 278 ± 48.9 ng·h/mL
- AUC(0-t) [1, 11]: 269 ± 47.3 ng·h/mL
- Tmax [1, 11]: 10.2 ± 5.4 min
- half-life [1, 11]: 26.4 ± 1.8 min
- Cmax ([1]; both sexes, Sprague Dawley, rat, plasma, single intraperitoneal injection 0.36 mg/kg, total (male and female), mean ± SD, read-out: Cmax): 257 ± 42.4 ng/mL
- gender difference in the absorption ([1]; intraperitoneal 0.36 mg/kg, male vs female): no significant gender difference
- Cl, observed ([1]; intraperitoneal 0.36 mg/kg, plasma, non-compartmental WinNonlin 7.0): 22.2 mL/min/kg
- CL ([1]; single intraperitoneal injection 0.36 mg/kg, female, mean ± SD): 25.15 ± 2.95 mL/min/kg
- CL ([1]; single intraperitoneal injection 0.36 mg/kg, male, mean ± SD): 19.15 ± 1.98 mL/min/kg
- CL ([1]; single intraperitoneal injection 0.36 mg/kg, total (male and female), mean ± SD): 22.15 ± 3.98 mL/min/kg
- Tmax ([2]; Sprague Dawley, rat, most tissues (tissue homogenate), ip, most tissues, read-out: time of maximum concentration in most tissues): 1.98 min
- time at which eliminated in most tissues ([2]; most tissues): 8 h
- Measured Concentrations [3, 12]: 3.15 ± 0.11 ng/mL
- RE [3, 12]: 5.00%
- Measured Concentrations [3, 13]: 299 ± 10 ng/mL
- RE [3, 13]: −0.33%
- Measured Concentrations [3, 14]: 710 ± 27 ng/mL
- RE [3, 14]: −5.38%
- Measured Concentrations [3, 15]: 2.96 ± 0.10 ng/mL
- RE [3, 15]: −1.50%
- Measured Concentrations [3, 16]: 278 ± 3 ng/mL
- RE [3, 16]: −7.44%
- Measured Concentrations [3, 17]: 670 ± 15 ng/mL
- RE [3, 17]: −10.7%
- Measured Concentrations [3, 18]: 2.87 ± 0.29 ng/mL
- RE [3, 18]: −4.22%
- Measured Concentrations [3, 19]: 287 ± 20 ng/mL
- RE [3, 19]: −4.28%
- Measured Concentrations [3, 20]: 684 ± 18 ng/mL
- RE [3, 20]: −8.87%
SMILES: COc1ccc(Oc2ccc(C(F)(F)F)cc2NC(=O)CC(CC(=O)O)c2ccccc2)cc1 (stereo not shown) [84-B10, 5-[[2-(4-methoxyphenoxy)-5-(trifluoromethyl)phenyl]amino]-5-oxo-3-phenylpentanoic acid]
- tissues with highest concentration [2]: most concentrated in the intestine, stomach, liver, kidney and lung
- AUC0→t, observed [4]: 1327 ng·h/mL
- Cl, observed [4]: 56.8 mL/min/kg
- Cmax, observed [4]: 2038 ng/mL
- Vd, observed [4]: 11.20 L/kg
- Kd ([5]; previous research, read-out: binding affinity): 0.312 µM
- binding affinity ([5]; same value expressed in ng/mL): 147 ng/mL
- LonP1 activation [6]: new LonP1 activator
- therapeutic effect on cisplatin-induced acute kidney injury [7]: significant therapeutic effect
- effect on renal fibrosis induced by UUO or UIRI [8]: dose-dependently alleviated renal fibrosis

Reference: paper PMC10780175, “In Silico and In Vivo Pharmacokinetic Evaluation of 84-B10, a Novel Drug Candidate against Acute Kidney Injury and Chronic Kidney Disease” (Molecules, 2023)
